Here are results for six molecules from patent publication US6593306B1, “Methods for modulation and inhibition of telomerase” (Board of Regents, The University of Texas Systems, priority 1995, dated 2003).

[7dzG] = 7-deaza-2'-deoxyguanosine (G*) Where only a bound is given, the exact number is not on record here.

For one data set, the system named is BT-20. Nature of the data set: Growth inhibition (MTT), BT-20. The format is cell-based. The conditions noted are these: Homo sapiens, BT-20, 144 h, 6 days. As to the method: (§1) Exponentially growing cells (1-2×10^3 cells, unless specified otherwise) in 0.1 ml medium were seeded on day 0 in a 96-well microtiter plate. On day 1, 0.1 ml aliquots of medium containing graded concentrations of test analogs were added in duplicate to the cell plates. After incubation at 37° C. in a humidified incubator for 6 days, the plates were centrifuged briefly and 100 μl of the growth medium was removed. Cell cultures were incubated with 50 μl of 3-(4,5-dimethylthiazol-2-yl)-2,5-diphenyl-tetrazolium bromide, (MTT) at a concentration of 1 mg/ml in Dulbecco's phosphate buffered saline (PBS)) for 4 hr at 37° C. The resulting purple formazan precipitate was solubilized with 200 μl of 0.04 N HCl in isopropyl alcohol. Absorbance was monitored in a BioRad Model 3550 Microplate Reader at a test wavelength of 570 nm and a reference wavelength of 630 nm. The absorbance was transferred to a PC 486 computer. The IC50 values were determined by a computer program (EZ-ED50) that fits all the data to the following four-parameter logistic equation: [formula]
(§2) where Amax is the absorbance of control cells, Amin is the absorbance of cells in the presence of highest agent concentration, Y is the observed absorbance, X is the agent concentration, IC50 is the concentration of agent that inhibits the cell growth by 50% of control cells (based on the absorbance) and n is the slope of the curve.
(§3) This is due to the extracellular dephosphorylation of the mono-, di-, or triphosphates by […] or 5′-nucleotidase back to the nucleoside. With this in mind, the inventors used only nucleosides rather than nucleoside triphosphates in these studies. Cultured tumor cells were incubated with selected nucleosides at graded concentrations for 6 days and the growth inhibition was determined by the standard MTT assay.

Another data set deals with Raji. The experiment in a line: Growth inhibition (MTT), Raji. The format is cell-based. The conditions noted are these: Homo sapiens, 144 h, 6 days. The procedure: as §1, §2, §3
For the next data set, the system named is PC3. Nature of the data set: Growth inhibition (MTT), PC3. It is filed as cell-based. The conditions noted are these: Homo sapiens, PC-3, 144 h, 6 days. As to the method:
as §1, §2, §3

The next data set concerns DU145. The experiment in a line: Growth inhibition (MTT), DU145. It is filed as cell-based. The conditions noted are these: Homo sapiens, DU-145, 144 h, 6 days. As to the method: as §1, §2, §3
The next data set has as its system SKBR3. Nature of the data set: Growth inhibition (MTT), SKBR3. The format is cell-based. The note with it: Homo sapiens, SK-BR-3, 144 h, 6 days. The procedure:
as §1, §2, §3

The subject of a further data set is MDA-231. The experiment in a line: Growth inhibition (MTT), MDA-231. The format is cell-based. The note with it: Homo sapiens, MDA-MB-231, 144 h, 6 days. The procedure:
as §1, §2, §3

A further data set concerns MCF-7. Nature of the data set: Growth inhibition (MTT), MCF-7. The conditions noted are these: Homo sapiens, MCF7, 144 h, 6 days. The format is cell-based. The procedure:
as §1, §2, §3

A further data set has as its target T1, human telomerase (Homo sapiens, UniProt O14746).
T1 construct: telomerase in S100 extracts of transformed human fetal kidney tumor 293 cells (a processive telomerase); endogenous in cells; host or cells: human cells, (S100 extract)
Nature of the data set: Cell-free telomerase inhibition, conventional or modified assay not stated. It is filed as biochemical.

The target in another data set is T2, UA-21 telomerase (Cricetulus griseus, UniProt A0A9J7FFE8).
T2 construct: non-processive telomerase activity in the S100 extracts of HeLa-S3, UA-21 and WI38 cell lines; endogenous in cells; host or cells: UA-21 cells (CHO subline), S100 extract
T2 sequence (A0A9J7FFE8 1-1129): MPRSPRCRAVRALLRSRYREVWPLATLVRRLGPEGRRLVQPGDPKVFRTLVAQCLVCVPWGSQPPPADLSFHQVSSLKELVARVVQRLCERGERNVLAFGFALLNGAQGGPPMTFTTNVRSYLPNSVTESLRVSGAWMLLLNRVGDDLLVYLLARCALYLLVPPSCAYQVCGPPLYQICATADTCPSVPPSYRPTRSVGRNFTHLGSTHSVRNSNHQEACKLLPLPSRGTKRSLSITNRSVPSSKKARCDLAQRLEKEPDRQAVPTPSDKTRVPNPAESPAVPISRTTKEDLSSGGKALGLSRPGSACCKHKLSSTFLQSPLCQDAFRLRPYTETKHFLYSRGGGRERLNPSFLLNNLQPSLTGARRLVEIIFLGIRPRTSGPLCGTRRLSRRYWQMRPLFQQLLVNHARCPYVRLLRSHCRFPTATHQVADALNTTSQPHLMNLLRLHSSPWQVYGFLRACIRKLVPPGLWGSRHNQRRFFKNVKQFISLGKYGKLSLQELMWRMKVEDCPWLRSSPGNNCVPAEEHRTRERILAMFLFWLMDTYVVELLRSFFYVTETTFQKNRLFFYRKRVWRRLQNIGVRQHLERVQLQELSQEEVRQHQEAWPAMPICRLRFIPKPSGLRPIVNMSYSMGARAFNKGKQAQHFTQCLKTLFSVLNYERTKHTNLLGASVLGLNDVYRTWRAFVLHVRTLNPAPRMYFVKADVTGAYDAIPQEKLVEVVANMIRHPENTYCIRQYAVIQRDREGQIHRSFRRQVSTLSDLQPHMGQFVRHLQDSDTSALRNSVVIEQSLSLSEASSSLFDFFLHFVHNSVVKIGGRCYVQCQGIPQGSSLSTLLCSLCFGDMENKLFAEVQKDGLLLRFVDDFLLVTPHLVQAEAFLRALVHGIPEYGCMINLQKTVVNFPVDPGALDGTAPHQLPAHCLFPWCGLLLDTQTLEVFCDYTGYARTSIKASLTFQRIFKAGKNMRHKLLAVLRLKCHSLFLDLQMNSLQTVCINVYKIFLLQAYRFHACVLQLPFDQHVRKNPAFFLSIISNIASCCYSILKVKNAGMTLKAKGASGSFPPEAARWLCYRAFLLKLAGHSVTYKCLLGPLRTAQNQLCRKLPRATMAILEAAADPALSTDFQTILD
Nature of the data set: Telomerase assay with CHO non-processive telomerase. The format is biochemical, Chinese hamster. The procedure:
Selected nucleoside triphosphates were tested in one or both of the “conventional” or “modified” telomerase assays described in Methods using the human processive and the CHO non-processive telomerases. Initially, three chain-terminators were selected: 2′,3′-dideoxythymidine triphosphate (ddTTP), 3′-fluoro-2′,3′-dideoxythymidine triphosphate (F-ddTTP), and 3′-azido-2′-, 3′-dideoxythymidine triphosphate (AZ-ddTTP) as prototype agents to investigate whether they could inhibit telomerase activity. The three compounds are dTTP analogs without a 3′-OH group for subsequent chain elongation. They may either incorporate into the telomere sequence and terminate further chain elongation or compete directly with dTTP for the substrate binding site in the telomerase reaction. In either case, telomerase activity is inhibited.
The DNA ladder bands were quantitated using a Molecular Dynamic Personal Densitometer. The concentration of AZ-ddTTP required to inhibit the telomerase activity by 50% of the control is estimated to be 500 and 750 μM against the 293 and UA-21 telomerase, respectively. In contrast, the nucleoside AZT (3′-azidothymidine), at 2 mM, has a small effect on the telomerase activity.

The target of data set [1] is T3, human 293 cell telomerase (Homo sapiens, UniProt O14746).
T3 construct: with 20 μl of S100 enzyme extract; endogenous in cells; host or cells: 293 cells (transformed human embryonic kidney), S100 extract
T3 sequence (O14746 whole entry): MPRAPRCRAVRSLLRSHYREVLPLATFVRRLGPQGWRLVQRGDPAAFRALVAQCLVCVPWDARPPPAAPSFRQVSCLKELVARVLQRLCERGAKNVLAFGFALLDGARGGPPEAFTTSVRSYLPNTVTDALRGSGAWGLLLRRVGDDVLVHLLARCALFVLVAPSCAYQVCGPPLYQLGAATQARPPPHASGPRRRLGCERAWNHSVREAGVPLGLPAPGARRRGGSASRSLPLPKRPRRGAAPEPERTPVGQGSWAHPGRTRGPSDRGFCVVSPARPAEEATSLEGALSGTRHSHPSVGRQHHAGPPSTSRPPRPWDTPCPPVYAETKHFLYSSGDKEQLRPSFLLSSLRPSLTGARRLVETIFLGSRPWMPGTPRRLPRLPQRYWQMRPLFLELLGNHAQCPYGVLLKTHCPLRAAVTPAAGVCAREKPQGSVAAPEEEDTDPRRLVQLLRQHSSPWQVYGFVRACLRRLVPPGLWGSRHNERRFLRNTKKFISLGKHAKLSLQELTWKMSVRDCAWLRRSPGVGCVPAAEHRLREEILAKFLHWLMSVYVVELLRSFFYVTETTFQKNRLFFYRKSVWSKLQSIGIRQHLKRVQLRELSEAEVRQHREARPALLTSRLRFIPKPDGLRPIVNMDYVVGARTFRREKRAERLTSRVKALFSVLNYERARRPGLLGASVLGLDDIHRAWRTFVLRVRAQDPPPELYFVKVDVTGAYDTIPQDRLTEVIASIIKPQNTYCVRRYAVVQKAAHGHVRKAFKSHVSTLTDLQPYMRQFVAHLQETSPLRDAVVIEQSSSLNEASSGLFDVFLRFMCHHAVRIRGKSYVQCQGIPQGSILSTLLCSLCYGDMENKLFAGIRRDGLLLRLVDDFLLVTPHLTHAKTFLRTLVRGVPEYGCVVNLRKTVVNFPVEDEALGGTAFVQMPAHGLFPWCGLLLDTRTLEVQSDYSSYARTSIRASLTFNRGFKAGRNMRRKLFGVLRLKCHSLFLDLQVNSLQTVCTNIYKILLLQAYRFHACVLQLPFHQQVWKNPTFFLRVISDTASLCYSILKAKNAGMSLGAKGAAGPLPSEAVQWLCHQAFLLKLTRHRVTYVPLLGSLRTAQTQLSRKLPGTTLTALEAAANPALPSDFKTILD
T3 sequence (O60832 whole entry partner): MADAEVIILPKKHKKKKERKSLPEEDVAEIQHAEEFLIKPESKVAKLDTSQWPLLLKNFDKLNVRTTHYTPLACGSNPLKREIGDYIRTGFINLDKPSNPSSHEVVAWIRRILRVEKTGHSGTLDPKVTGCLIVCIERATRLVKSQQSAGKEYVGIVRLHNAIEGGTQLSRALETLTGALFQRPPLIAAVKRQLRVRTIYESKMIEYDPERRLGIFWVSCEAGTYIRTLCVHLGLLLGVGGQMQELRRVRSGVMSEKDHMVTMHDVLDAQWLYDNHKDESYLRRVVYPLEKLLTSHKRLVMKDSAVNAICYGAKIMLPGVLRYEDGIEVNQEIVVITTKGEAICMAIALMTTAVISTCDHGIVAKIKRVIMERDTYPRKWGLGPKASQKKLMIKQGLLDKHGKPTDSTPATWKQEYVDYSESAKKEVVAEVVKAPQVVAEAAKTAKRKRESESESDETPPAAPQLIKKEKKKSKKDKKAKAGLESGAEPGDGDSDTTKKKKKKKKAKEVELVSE
T3 sequence (Q9NPE3 whole entry partner): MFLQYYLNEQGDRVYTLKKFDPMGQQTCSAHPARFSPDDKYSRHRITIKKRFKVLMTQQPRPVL
T3 sequence (Q9NX24 whole entry partner): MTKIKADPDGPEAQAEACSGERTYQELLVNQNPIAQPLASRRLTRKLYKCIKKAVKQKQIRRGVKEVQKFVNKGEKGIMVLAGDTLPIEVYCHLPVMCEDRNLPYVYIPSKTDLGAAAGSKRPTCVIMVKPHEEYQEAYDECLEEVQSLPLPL
T3 sequence (Q9NY12 whole entry partner): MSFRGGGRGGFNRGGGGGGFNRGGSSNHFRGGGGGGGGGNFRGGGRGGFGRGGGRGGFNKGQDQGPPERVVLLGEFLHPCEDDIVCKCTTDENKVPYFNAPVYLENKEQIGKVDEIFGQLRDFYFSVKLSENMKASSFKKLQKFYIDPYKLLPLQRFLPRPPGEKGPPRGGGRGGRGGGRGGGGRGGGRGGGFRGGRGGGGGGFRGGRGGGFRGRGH
The experiment in a line: Conventional telomerase assay (32P-dGTP as radiolabel substrate). The format is biochemical. The conditions noted are these: 293 cells telomerase; competing dTTP 1-2 mM; inhibitor 0 to 2 mM.

The test system of data set [2] is transformed human embryonic kidney 293 cells. The experiment in a line: Growth inhibition (MTT), 293 cells. The format is cell-based. The conditions noted are these: HEK293, 144 h, 6 days. As to the method: as §1, §2, §3
Data set [3] concerns human colon carcinoma HT29 cells. The experiment in a line: Growth inhibition (MTT), HT29 cells. The format is cell-based. The note with it: HT-29, 144 h, 6 days. The procedure:
as §1, §2, §3

In data set [4] the test system is G-quartet structure of human telomeric DNA sequence. The experiment in a line: G-quartet formation by imino proton NMR. It is filed as physicochemical. The conditions noted are these: KCl-containing buffer; imino proton resonances 10-12 ppm. The procedure: The oligodeoxyribonucleotide having the sequence d(GGTTAGGGTTAG), corresponding to the human telomeric DNA sequence, was prepared using standard automated solid phase synthesis techniques employing a ten micromole synthesis on an Applied Biosystems Model 381A automated DNA synthesizer. Solid support and reagents were purchased from Biogenex, Glen Research, or Applied Biosystems, South San Francisco, Calif. The DNA sample was deprotected in concentrated NH4OH at 55° C. overnight, purified by reverse phase HPLC on a C18 column (Dynamax-300A) and then dialyzed extensively against deionized water. NMR samples were prepared by reconstituting lyophilized DNA in 90% H2O/10% D2O containing 1 mM EDTA/50 mM potassium phosphate and either 100 mM KCl or 100 mM NaCl. NMR experiments were carried out on a Bruker AMX 500 MHz spectrophotometer using a 1-1 echo pulse sequence with maximum excitation centered as 12.0 ppm.
After cleavage from the solid support, deprotection and purification, the oligodeoxyribonucleotide is dissolved in 90% H2O/10% D2O containing 100 mM KCl/1 mM EDTA/50 mM potassium phosphate. The imino NMR spectrum of this oligodeoxyribonucleotide is acquired at various temperatures from about 0° C.-80° C. and the presence of the diagnostic G-quartet imino is indicated by the presence of resonances at 10-12 ppm.

T1 sequence (O14746 whole entry): as the sequence (O14746 whole entry) above
T1 sequence (O60832 whole entry partner): as the sequence (O60832 whole entry partner) above
T1 sequence (Q9NPE3 whole entry partner): as the sequence (Q9NPE3 whole entry partner) above
T1 sequence (Q9NX24 whole entry partner): as the sequence (Q9NX24 whole entry partner) above
T1 sequence (Q9NY12 whole entry partner): as the sequence (Q9NY12 whole entry partner) above

As for `CSc1nc(N)nc2c1ccn2C1CC(O)C(CO)O1` (centres unmarked) [Compound 3, 6-Thiomethyl-7-deaza-2′-deoxyguanosine], the IC50 is 94.3 µM with BT-20; 84.1 µM with Raji; above 100 µM in the data set with PC3; above 100 µM in the data set on DU145; 74 µM in the data set with SKBR3; 281 µM in the data set with MDA-231. For the same molecule, the IC50 with MCF-7 stood at 88.6 µM.

Turning to `Cc1cn([C@H]2C[C@H](F)[C@@H](COP(=O)(O)OP(=O)(O)OP(=O)(O)O)O2)c(=O)[nH]c1=O` [NA002, 3′-Fluoro-3′-Deoxythymidine-5′-Triphosphate], the “effect against the processive human telomerase” value on human telomerase (concentration not given) was “little effect”. Besides, the “inhibition of the non-processive CHO telomerase” value against UA-21 telomerase (concentration not given) is given as “completely”.

Consider `Cc1cn([C@H]2C[C@H](N=[N+]=[N-])[C@@H](CO[P@](=O)(O)O[P@](=O)(O)OP(=O)(O)O)O2)c(=O)[nH]c1=O` [NA010, 3′-Azido-3′-Deoxythymidine-5′-Triphosphate], for which the IC50 was around 200 µM in data set [1]; around 500 µM at human telomerase (293 telomerase, estimated from densitometry, read-out: concentration required to inhibit the telomerase activity by 50% of the control); around 750 µM at UA-21 telomerase (UA-21 telomerase, estimated from densitometry, read-out: concentration required to inhibit the telomerase activity by 50% of the control).

`Nc1nc2c(ccn2[C@H]2C[C@H](O)[C@@H](CO)O2)c(=S)[nH]1` [NA028, 6-Thio-7-Deaza-2′-Deoxyguanosine]: the IC50 with BT-20 is 84 µM; with Raji, 103 µM; in [2] it was 461 µM; in the data set on PC3, 209 µM; in data set [3], 461 µM; in the data set on DU145, above 100 µM. Besides, the IC50 with SKBR3 amounted to 108 µM; in the data set with MDA-231, 117 µM; in the data set with MCF-7, 108 µM.

On to “d(GGTTAGG*GTTAG): oligodeoxyribonucleotide where G* represents the 7-deaza-2′-deoxyguanosine residue (DNA GGTTAGGGTTAG; DNA, [7dzG] at 7, backbone not given here)”, for which, in data set [4], the “temperature up to which G-quartet structure forms” value is at most 20 °C.

Regarding “d(GGTTAGGGTTAG): oligodeoxyribonucleotide corresponding to the human telomeric DNA sequence (DNA, backbone not given here) [reference compound]”, the “temperature up to which G-quartet structure forms” value in data set [4] was at least 70 °C.
